Laboratory results: patent US9409952B2, “Peptide-compound cyclization method” (Chugai Seiyaku Kabushiki Kaisha, priority 2011, dated 2016)
Read-outs that look alike come from different tables or passages of the source. Starred links: 1 amine or outer side, 2 acyl side, 3 side chain; linkers in the order of their positions; H or OH if unused. Positions of bridges follow the written chain, without caps; N, C: chain ends. Non-standard residues stand in square brackets, D forms with d. Residues, ends and D or L forms follow the SMILES beside them. *: point of attachment. NMeF = CN[C@@H](Cc1ccccc1)C(=O)O; NMeβAla = CN(CCC(=O)[*:2])[*:1]; NMeL = CN[C@@H](CC(C)C)C(=O)O; NMeV = CN[C@H](C(=O)O)C(C)C; NMeA = CN[C@@H](C)C(=O)O; Piperidide = C1CCN(*)CC1; dNMeA = CN[C@H](C)C(=O)O; Sar = CNCC(=O)O; tBu = CC(C)(C)*

Assays:
[1] = PAMPA (parallel artificial membrane permeability assay); assay type: in vitro ADME; conditions: for Papp at 18 hours, 50 µM: PAMPA
Method in brief: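 Artificial membrane was 10% (w/v) egg lecithin plus 0.5% (w/v) cholesterol in dodecane on a PVDF filter. A 10 mM DMSO stock was added at 0.5% (v/v) to donor buffer (50 mM MOPSO, pH 6.5, 5.0% glycocholic acid). After 18 h at 37 °C, LC/MS or LC/UV gave donor and acceptor levels for Pe.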

[2] = Metabolic stability in human hepatic microsome; assay type: in vitro ADME; conditions: microsomes
[3] = membrane permeation rate (Pe), 50 mM MOPSO buffer pH 6.5 with 5.0% glycocholic acid, 37° C., 18 hours, read-out: iPAMPA Pe
[4] = pH 7.4, human hepatic microsome, NADPH(+), read-out: CL NADPH(+)

Compound	Papp at 18 hours, 50 µM [1, 3]	microsomal CLint at 1 uM [2, 4]	Papp at 18 hours, 50 µM ([1]; pH 6.5)	microsomal CLint at 1 uM ([2]; human, pH 7.4, CL NADPH(+))	iPAMPA Pe ([1]; membrane permeation rate (Pe), 50 mM MOPSO buffer pH 6.5 with 5.0% glycocholic acid, 37° C., 18 hours)
CC(C)C[C@H]1C(=O)N[C@@H](COC(C)(C)C)C(=O)N[C@H](C(=O)N2CCCCC2)CC(=O)N(C)CC(=O)N(C)[C@@H](Cc2ccccc2)C(=O)N(C)[C@@H](C)C(=O)N(C)[C@@H](CC(C)C)C(=O)N[C@@H]([C@@H](C)O)C(=O)N(C)[C@@H](C)C(=O)N1C [DP-163] ([Sar][NMeF][NMeA][NMeL]T[NMeA][NMeL]S(tBu)D-Piperidide; lactam N-9)	23 ×10⁻⁶ cm/s	68 µL/min/mg			
CC[C@H](C)[C@@H]1NC(=O)[C@H](Cc2ccccc2)N(C)C(=O)[C@H](C)N(C)C(=O)[C@H]([C@@H](C)O)NC(=O)[C@@H](C)N(C)C(=O)C[C@@H](C(=O)N2CCCCC2)NC(=O)[C@H](CC(C)C)N(C)C(=O)[C@H](C)N(C)C(=O)[C@H](Cc2ccccc2)NC(=O)[C@H](C(C)C)N(C)C(=O)[C@@H]2CCCN2C1=O [DP-164] ([dNMeA]T[NMeA][NMeF]IP[NMeV]F[NMeA][NMeL]D-Piperidide; lactam N-11)			30 ×10⁻⁶ cm/s	253 µL/min/mg	
CC(C)C[C@@H]1NC(=O)[C@H](CC(C)C)N(C)C(=O)[C@H](C)N(C)C(=O)[C@@H](C)N(C)C(=O)C[C@@H](C(=O)N2CCCCC2)NC(=O)[C@H]([C@@H](C)O)NC(=O)CN(C)C(=O)[C@H](Cc2ccccc2)NC(=O)[C@H](CC(C)C)N(C)C(=O)[C@H](C(C)C)N(C)C(=O)[C@H](Cc2ccccc2)N(C)C1=O [DP-165] ([dNMeA][NMeA][NMeL]L[NMeF][NMeV][NMeL]F[Sar]TD-Piperidide; lactam N-11)	56 ×10⁻⁶ cm/s	42 µL/min/mg			
CC(C)C[C@@H]1NC(=O)[C@H](CC(C)C)N(C)C(=O)[C@H](C)NC(=O)[C@H](C)N(C)C(=O)[C@H]([C@@H](C)O)NC(=O)CN(C)C(=O)[C@H](C(C)C)N(C)C(=O)[C@H](CC(C)C)N(C)C(=O)[C@H](Cc2ccccc2)NC(=O)CN(C)C(=O)C[C@@H](C(=O)N2CCCCC2)NC1=O [DP-167] ([Sar]F[NMeL][NMeV][Sar]T[NMeA]A[NMeL]LD-Piperidide; lactam N-11)	9.5 ×10⁻⁶ cm/s	75 µL/min/mg			
CC[C@H](C)[C@@H]1NC(=O)[C@H](Cc2ccccc2)N(C)C(=O)CN(C)C(=O)C[C@@H](C(=O)N2CCCCC2)NC(=O)[C@H](C(C)C)N(C)C(=O)[C@H](COC(C)(C)C)NC(=O)[C@H](CC(C)C)N(C)C(=O)[C@H](Cc2ccccc2)N(C)C(=O)CN(C)C(=O)[C@H]([C@@H](C)O)NC(=O)[C@H](CC(C)C)N(C)C1=O [DP-168] ([Sar][NMeF]I[NMeL]T[Sar][NMeF][NMeL]S(tBu)[NMeV]D-Piperidide; lactam N-11)	23 ×10⁻⁶ cm/s	85 µL/min/mg			
CC(C)C[C@@H]1NC(=O)[C@H]([C@@H](C)O)NC(=O)[C@H](Cc2ccccc2)N(C)C(=O)[C@H](CC(C)C)N(C)C(=O)[C@H](Cc2ccccc2)N(C)C(=O)[C@H](C)N(C)C(=O)[C@H](C)N(C)C(=O)[C@H](CC(C)C)N(C)C(=O)[C@@H](C)NC(=O)C[C@@H](C(=O)N2CCCCC2)NC1=O [DP-169] ([dA][NMeL][NMeA][NMeA][NMeF][NMeL][NMeF]TLD-Piperidide; lactam N-10)	36 ×10⁻⁶ cm/s	43 µL/min/mg			
CC(C)C[C@H]1C(=O)N[C@@H](COC(C)(C)C)C(=O)N(C)[C@@H](CC(C)C)C(=O)N[C@H](C(=O)N2CCCCC2)CC(=O)N[C@H](C)C(=O)N(C)[C@@H](C)C(=O)N(C)[C@@H](Cc2ccccc2)C(=O)N(C)[C@@H](CC(C)C)C(=O)N[C@@H]([C@@H](C)O)C(=O)N(C)CC(=O)N1C [DP-170] ([dA][NMeA][NMeF][NMeL]T[Sar][NMeL]S(tBu)[NMeL]D-Piperidide; lactam N-10)	43 ×10⁻⁶ cm/s	22 µL/min/mg			
CC(C)C[C@H]1C(=O)N(C)[C@@H](C(C)C)C(=O)N[C@@H](Cc2ccccc2)C(=O)N[C@H](C(=O)N2CCCCC2)CC(=O)N[C@H](C(C)C)C(=O)N[C@@H](COC(C)(C)C)C(=O)N(C)[C@@H](CC(C)C)C(=O)N[C@@H]([C@@H](C)O)C(=O)N(C)[C@@H](Cc2ccccc2)C(=O)NCC(=O)N1C [DP-171] ([dV]S(tBu)[NMeL]T[NMeF]G[NMeL][NMeV]FD-Piperidide; lactam N-10)	50 ×10⁻⁶ cm/s	191 µL/min/mg			
CC[C@H](C)[C@@H]1NC(=O)[C@H]([C@@H](C)O)NC(=O)[C@H](C)N(C)C(=O)[C@H](CC(C)C)N(C)C(=O)[C@H](Cc2ccccc2)N(C)C(=O)[C@H](Cc2ccccc2)N(C)C(=O)[C@H](C)N(C)C(=O)[C@H](CC(C)C)N(C)C(=O)[C@@H](C(C)C)NC(=O)C[C@@H](C(=O)N2CCCCC2)NC1=O [DP-172] ([dV][NMeL][NMeA][NMeF][NMeF][NMeL][NMeA]TID-Piperidide; lactam N-10)		25 µL/min/mg			7.0E−05
CC[C@H](C)[C@@H]1NC(=O)[C@H](CC(C)C)N(C)C(=O)[C@H](C)NC(=O)[C@H](C)N(C)C(=O)C[C@@H](C(=O)N2CCCCC2)NC(=O)[C@H](C(C)C)N(C)C(=O)[C@H](Cc2ccccc2)N(C)C(=O)[C@H]([C@@H](C)O)NC(=O)[C@H](CC(C)C)N(C)C(=O)[C@H](Cc2ccccc2)NC1=O [DP-173] ([NMeA]A[NMeL]IF[NMeL]T[NMeF][NMeV]D-Piperidide; lactam N-10)	58 ×10⁻⁶ cm/s	251 µL/min/mg			
CC(C)C[C@H]1C(=O)N(C)[C@@H](CC(C)C)C(=O)N(C)[C@@H](CC(C)C)C(=O)N[C@H](C(=O)N2CCCCC2)CC(=O)N(C)CCC(=O)N[C@@H]([C@@H](C)O)C(=O)N(C)[C@@H](C)C(=O)N(C)[C@@H](Cc2ccccc2)C(=O)N(C)[C@@H](Cc2ccccc2)C(=O)NCC(=O)N1C [DP-174] ([NMeβAla]T[NMeA][NMeF][NMeF]G[NMeL][NMeL][NMeL]D-Piperidide; lactam N-10)	22 ×10⁻⁶ cm/s	66 µL/min/mg			
CC(C)C[C@H]1C(=O)N[C@H](C(=O)N2CCCCC2)CC(=O)N(C)CC(=O)N[C@@H]([C@@H](C)O)C(=O)N(C)[C@@H](C)C(=O)N(C)[C@@H](Cc2ccccc2)C(=O)NCC(=O)N(C)[C@@H](Cc2ccccc2)C(=O)N(C)[C@@H](CC(C)C)C(=O)N(C)[C@@H](CC(C)C)C(=O)N1C [DP-175] ([Sar]T[NMeA][NMeF]G[NMeF][NMeL][NMeL][NMeL]D-Piperidide; lactam N-10)	48 ×10⁻⁶ cm/s	94 µL/min/mg			
CC(C)C[C@H]1C(=O)NCC(=O)N[C@H](C(=O)N2CCCCC2)CC(=O)N[C@H](C(C)C)C(=O)N[C@@H]([C@@H](C)O)C(=O)N(C)[C@@H](C)C(=O)N(C)[C@@H](Cc2ccccc2)C(=O)N(C)[C@@H](Cc2ccccc2)C(=O)N[C@@H](COC(C)(C)C)C(=O)N1C [DP-176] ([dV]T[NMeA][NMeF][NMeF]S(tBu)[NMeL]GD-Piperidide; lactam N-9)	25 ×10⁻⁶ cm/s	47 µL/min/mg			
CC(C)C[C@@H]1NC(=O)[C@H](CC(C)C)N(C)C(=O)[C@H](Cc2ccccc2)NC(=O)[C@H](C)NC(=O)[C@H](C(C)C)N(C)C(=O)CN(C)C(=O)[C@H]([C@@H](C)O)NC(=O)[C@H](C)N(C)C(=O)[C@H](CC(C)C)N(C)C(=O)[C@H](C)NC(=O)C[C@@H](C(=O)N(C)[C@@H](Cc2ccccc2)C(=O)N[C@@H](C)C(=O)N2CCCCC2)NC1=O [DP-177] (A[NMeL][NMeA]T[Sar][NMeV]AF[NMeL]LD[NMeF]A-Piperidide; lactam N-11)	23 ×10⁻⁶ cm/s	27 µL/min/mg			
CC(C)C[C@@H]1NC(=O)[C@H](CC(C)C)N(C)C(=O)[C@H](C)NC(=O)[C@H](C(C)C)N(C)C(=O)[C@H](Cc2ccccc2)NC(=O)CN(C)C(=O)[C@H]([C@@H](C)O)NC(=O)[C@H](C)N(C)C(=O)[C@H](CC(C)C)N(C)C(=O)[C@@H](C)NC(=O)C[C@@H](C(=O)N(C)[C@@H](Cc2ccccc2)C(=O)N[C@@H](C)C(=O)N2CCCCC2)NC1=O [DP-179] ([dA][NMeL][NMeA]T[Sar]F[NMeV]A[NMeL]LD[NMeF]A-Piperidide; lactam N-11)	17 ×10⁻⁶ cm/s	13 µL/min/mg			
CC[C@H](C)[C@@H]1NC(=O)[C@H](C)N(C)C(=O)[C@H](C)N(C)C(=O)[C@H]([C@@H](C)O)NC(=O)[C@H](CC(C)C)N(C)C(=O)[C@H](CC(C)C)NC(=O)[C@H](Cc2ccccc2)N(C)C(=O)[C@@H](C)NC(=O)C[C@@H](C(=O)N(C)[C@@H](Cc2ccccc2)C(=O)N[C@@H](C)C(=O)N2CCCCC2)NC(=O)[C@H](C(C)C)N(C)C(=O)[C@H](Cc2ccccc2)N(C)C1=O [DP-180] ([dA][NMeF]L[NMeL]T[NMeA][NMeA]I[NMeF][NMeV]D[NMeF]A-Piperidide; lactam N-11)	23 ×10⁻⁶ cm/s	35 µL/min/mg			
CC(C)C[C@@H]1NC(=O)[C@H](CC(C)C)N(C)C(=O)[C@H](C)N(C)C(=O)[C@H](Cc2ccccc2)NC(=O)[C@H](C(C)C)N(C)C(=O)CNC(=O)[C@H]([C@@H](C)O)NC(=O)[C@H](C)N(C)C(=O)[C@H](CC(C)C)N(C)C(=O)[C@H](C)N(C)C(=O)C[C@@H](C(=O)N(C)[C@@H](Cc2ccccc2)C(=O)N[C@@H](C)C(=O)N2CCCCC2)NC1=O [DP-181] ([NMeA][NMeL][NMeA]TG[NMeV]F[NMeA][NMeL]LD[NMeF]A-Piperidide; lactam N-11)	18 ×10⁻⁶ cm/s	13 µL/min/mg			
CC(C)C[C@@H]1NC(=O)[C@H](CC(C)C)N(C)C(=O)[C@@H]2CCCN2C(=O)[C@H](CC(C)C)N(C)C(=O)[C@H](Cc2ccccc2)NC(=O)CNC(=O)[C@H](CC(C)C)N(C)C(=O)[C@H](Cc2ccccc2)NC(=O)CCN(C)C(=O)C[C@@H](C(=O)N(C)[C@@H](Cc2ccccc2)C(=O)N[C@@H](C)C(=O)N2CCCCC2)NC(=O)[C@H]([C@@H](C)O)NC1=O [DP-182] ([NMeβAla]F[NMeL]GF[NMeL]P[NMeL]LTD[NMeF]A-Piperidide; lactam N-11)	26 ×10⁻⁶ cm/s	9 µL/min/mg			
